{
  "source": "patent US20180015038A1",
  "about": "“OMEGA-3 FATTY ACID SELF-EMULSIFYING COMPOSITION” (MOCHIDA PHARMACEUTICAL CO., LTD., priority 2015, published 2018)",
  "assay": "Evaluation of appearance (Test Example 1)",
  "type": "physicochemical",
  "conditions": "allowed to stand, about 1 hour after production; transparent / separated / cloudy",
  "procedure": "After producing the pharmaceutical compositions and the self-emulsifying compositions of Reference Examples by the production methods as described above, the compositions were allowed to stand, and after about 1 hour, their appearance was evaluated. The composition was evaluated “transparent” when the composition was homogeneous due to the good compatibility. The composition was evaluated “separated” when the separation was observed and “cloudy” when opacity was observed.",
  "data": [
    {"molecule": "CC(C)c1c(C(=O)Nc2ccccc2)c(-c2ccccc2)c(-c2ccc(F)cc2)n1CC[C@@H](O)C[C@@H](O)CC(=O)[O-].CC(C)c1c(C(=O)Nc2ccccc2)c(-c2ccccc2)c(-c2ccc(F)cc2)n1CC[C@@H](O)C[C@@H](O)CC(=O)[O-].[Ca+2]", "note": "[atorvastatin calcium]", "values": [
      {"measurement": "Appearance", "result": "good appearance was not realized"}
    ]}
  ]
}
